Consider 11 molecules from patent publication US8569292B2, “Cyclic inhibitors of 11β-hydroxysteroid dehydrogenase 1” (Vitae Pharmaceuticals, Inc., priority 2008, dated 2013).

Each structure is given as a SMILES string. Like-named read-outs stand apart in the source and are kept apart here.

The target in one data set is CYP2C19 (Homo sapiens, UniProt P33261). Kind of data set: Biological Test Example 8: CYP2C19 inhibition (diazepam N-demethylation). It counts as in vitro ADME.
Data set [1] deals with T1, CYP2C9 (Homo sapiens, UniProt P11712).
T1 construct: purchased Invitrogen 2859; host or cells: insect cells infected with baculovirus (microsomes)
As to the kind of experiment: Biological Test Example 7: CYP2C9 inhibition (naproxen O-demethylation). The format is in vitro ADME.

The next data set has as its target CYP3A4 (Homo sapiens, UniProt P08684). As to the kind of experiment: Biological Test Example 6: CYP3A4 inhibition (erythromycin N-demethylation). It counts as in vitro ADME.
Data set [2] in a line: Biological Test Example 5: fraction unbound in human plasma (equilibrium dialysis). It counts as in vitro ADME. The protocol:
Plasma protein binding of compounds was determined with Equilibrium Dialysis of spiked plasma against compound free dextrane buffer using a dialysis membrane with mass cutoff of 5000 Da. Compound concentrations in plasma and buffer after incubation were measured using HPLC/Mass spectrometry.
(In equilibrium dialysis free small molecules cross a membrane that holds back macromolecules.)

Data set [3] deals with T1, CYP2C9. As to the kind of experiment: Biological Test Example 9: CYP2C9 inhibition (Invitrogen kit, fluorogenic OOMR). The format is in vitro ADME.
Data set [4] concerns the target T2, 11β-HSD1 (Homo sapiens, UniProt P28845). As to the kind of experiment: Biological Test Example 4: microsomal 11β-HSD1 in the presence of 50% human plasma. To be noted: for Shift: IC50 in Test Example 4 divided by IC50 in Test Example 1.
Data set [5] concerns the target T2, 11β-HSD1. Kind of data set: biochemical. The note with it: for inhibition at 0.1 µM: read-out: Average % inhibition at 100 nM.
The target of data set [6] is T2, 11β-HSD1.
Setting [7] is: Biological Test Example 1 IC50 (nM).
Setting [8] is: IC50 Range, Biological Test Example 1.

T2 sequence (P28845 whole entry): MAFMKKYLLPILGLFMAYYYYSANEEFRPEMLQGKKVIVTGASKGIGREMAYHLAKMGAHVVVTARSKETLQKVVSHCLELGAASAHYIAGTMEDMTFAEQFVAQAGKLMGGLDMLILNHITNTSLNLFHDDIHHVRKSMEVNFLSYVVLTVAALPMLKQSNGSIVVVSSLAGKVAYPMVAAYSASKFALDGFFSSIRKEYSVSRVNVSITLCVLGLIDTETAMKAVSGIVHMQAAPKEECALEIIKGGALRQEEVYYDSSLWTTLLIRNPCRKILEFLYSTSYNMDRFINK
T1 sequence (P11712 whole entry): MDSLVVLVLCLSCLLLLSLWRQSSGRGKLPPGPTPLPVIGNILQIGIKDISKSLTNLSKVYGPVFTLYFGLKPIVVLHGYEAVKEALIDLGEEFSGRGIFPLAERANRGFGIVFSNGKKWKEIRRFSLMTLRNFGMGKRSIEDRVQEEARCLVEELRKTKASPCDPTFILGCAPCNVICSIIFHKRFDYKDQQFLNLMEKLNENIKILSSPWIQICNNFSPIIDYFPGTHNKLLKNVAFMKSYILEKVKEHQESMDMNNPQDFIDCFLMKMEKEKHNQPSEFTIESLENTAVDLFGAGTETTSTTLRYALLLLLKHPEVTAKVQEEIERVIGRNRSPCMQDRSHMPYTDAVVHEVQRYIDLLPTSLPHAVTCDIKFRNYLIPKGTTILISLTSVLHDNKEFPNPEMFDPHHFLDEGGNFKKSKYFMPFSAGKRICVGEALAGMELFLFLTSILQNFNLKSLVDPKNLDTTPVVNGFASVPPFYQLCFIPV
Chain of CYP3A4 (P08684 whole entry): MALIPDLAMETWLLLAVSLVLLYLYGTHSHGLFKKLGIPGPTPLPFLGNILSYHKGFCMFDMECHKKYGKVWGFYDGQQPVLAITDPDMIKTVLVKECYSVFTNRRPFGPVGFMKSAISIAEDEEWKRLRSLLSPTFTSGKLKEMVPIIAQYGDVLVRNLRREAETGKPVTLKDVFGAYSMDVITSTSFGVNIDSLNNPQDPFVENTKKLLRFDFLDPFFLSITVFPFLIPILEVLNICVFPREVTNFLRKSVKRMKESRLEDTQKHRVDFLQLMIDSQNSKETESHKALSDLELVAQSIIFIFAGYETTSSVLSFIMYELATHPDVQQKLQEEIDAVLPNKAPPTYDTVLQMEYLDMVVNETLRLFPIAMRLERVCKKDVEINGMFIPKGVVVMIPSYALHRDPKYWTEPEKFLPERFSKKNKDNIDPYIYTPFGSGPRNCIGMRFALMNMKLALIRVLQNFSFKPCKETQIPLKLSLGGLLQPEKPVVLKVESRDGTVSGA
Chain of CYP2C19 (P33261 whole entry): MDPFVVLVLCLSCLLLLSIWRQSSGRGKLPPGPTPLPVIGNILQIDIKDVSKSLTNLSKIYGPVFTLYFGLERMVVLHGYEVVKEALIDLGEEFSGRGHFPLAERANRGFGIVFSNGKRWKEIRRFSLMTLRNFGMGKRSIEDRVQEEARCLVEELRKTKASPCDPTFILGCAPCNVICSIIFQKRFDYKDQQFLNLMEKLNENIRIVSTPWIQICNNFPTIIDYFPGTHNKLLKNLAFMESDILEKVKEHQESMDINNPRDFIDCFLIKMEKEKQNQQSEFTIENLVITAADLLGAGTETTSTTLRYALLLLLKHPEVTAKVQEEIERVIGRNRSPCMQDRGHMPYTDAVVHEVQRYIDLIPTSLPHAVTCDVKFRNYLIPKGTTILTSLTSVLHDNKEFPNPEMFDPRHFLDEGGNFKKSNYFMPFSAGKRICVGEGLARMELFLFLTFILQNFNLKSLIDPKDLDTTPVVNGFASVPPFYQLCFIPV

For orientation: IC50 means the concentration at which inhibition is half-maximal. In the case of `C[C@@H](c1ccc(-c2ccc(C#N)cn2)cc1)N1CC[C@](CC(C)(C)O)(c2ccccc2)OC1=O` [EXAMPLE 138, 6-(4-((S)-1-((S)-6-(2-hydroxy-2-methylpropyl)-2-oxo-6-phenyl-1,3-oxazinan-3-yl)ethyl)phenyl)nicotinonitrile], the IC50 on CYP2C19 is 24.2 µM; against CYP2C9 [1], 22.2 µM; at CYP3A4, 12.7 µM. In data set [2], the “Biological Test Example 5 (%)” value amounted to 2%.
On to `Cc1ncc(-c2ccc([C@H](C)N3CC[C@](CC(C)(C)O)(c4ccccc4)OC3=O)cc2)cn1` [EXAMPLE 149, (S)-6-(2-hydroxy-2-methylpropyl)-3-((S)-1-(4-(2-methylpyrimidin-5-yl)phenyl)ethyl)-6-phenyl-1,3-oxazinan-2-one], for which the IC50 at CYP2C9 [3] was 17.4 µM; on CYP2C19, above 50 µM; against CYP2C9 [1], above 50 µM; against CYP3A4, above 50 µM. Besides, in data set [2], the “Biological Test Example 5 (%)” value was 2.7%.
Usually inhibition stands for the share of the control response that was lost under treatment. On to `C[C@@H](c1ccc(-c2ccc(C#N)cn2)cc1)N1CC[C@](CC(C)(C)O)(c2ccc(F)cc2)OC1=O` [EXAMPLE 111, 6-(4-((S)-1-((S)-6-(4-fluorophenyl)-6-(2-hydroxy-2-methylpropyl)-2-oxo-1,3-oxazinan-3-yl)ethyl)phenyl)nicotinonitrile], for which the IC50 at CYP2C9 [3] was 4.7 µM; on 11β-HSD1 [4], 0.0072 µM; at 11β-HSD1 [5] (setting [7]), 0.8 nM; at 11β-HSD1 [5] (setting [8]), below 100 nM; against CYP2C19, above 50 µM; against CYP2C9 [1], above 50 µM. Further, it took 9.8 µM to reach half-maximal inhibition against CYP3A4 (IC50). In addition, the inhibition at 0.1 µM at 11β-HSD1 [5] stood at 97.6%. The “Biological Test Example 5 (%)” value in data set [2] came to 2%.
For `C[C@@H](c1ccc(-c2ccc(F)cn2)cc1)N1CC[C@](CC(C)(C)O)(c2ccccc2)OC1=O` [EXAMPLE 136, (S)-3-((S)-1-(4-(5-fluoropyridin-2-yl)phenyl)ethyl)-6-(2-hydroxy-2-methylpropyl)-6-phenyl-1,3-oxazinan-2-one], the concentration for half-maximal inhibition (IC50) against CYP2C9 [3] is 9.6 µM; against CYP2C19, 24.7 µM; against CYP2C9 [1] it was 20.1 µM; on CYP3A4 it was 24.1 µM. For the same molecule, in data set [2], the “Biological Test Example 5 (%)” value worked out at 0.3%.
With `Cc1cc(-c2ccc([C@H](C)N3CCC(CCN4CCCS4(=O)=O)(c4ccccc4)OC3=O)cc2)ccn1` (stereo in doubt) [EXAMPLE 118, (R)-3-((S)-1-(4-(2-methylpyridin-4-yl)phenyl)ethyl)-6-phenyl-6-(2-(1,1-dioxoisothiazolidin-2-yl)ethyl)-1,3-oxazinan-2-one], the “Average % inhibition at 100 nM” value on 11β-HSD1 [6] (100 nM) is on record as 86.3%. Moreover, the IC50 on 11β-HSD1 [6] (read-out: Biological Test Example 1 IC50) is 0.0192 µM; at 11β-HSD1 [6] (read-out: IC50 Range, Biological Test Example 1), below 0.1 µM.
As to `Cc1ccc(-c2ccc([C@H](C)N3CC[C@](CC(C)(C)O)(c4ccccc4)OC3=O)cc2)nn1` [EXAMPLE 134, (S)-6-(2-hydroxy-2-methylpropyl)-3-((S)-1-(4-(6-methylpyridazin-3-yl)phenyl)ethyl)-6-phenyl-1,3-oxazinan-2-one], the IC50 against CYP2C9 [3] is above 30 µM; on CYP2C19, above 50 µM; at CYP2C9 [1], above 50 µM; against CYP3A4, above 50 µM. For the same molecule, in data set [2], the “Biological Test Example 5 (%)” value worked out at 10.5%.
For `C[C@@H](c1ccc(-c2cnccn2)cc1)N1CC[C@](CC(C)(C)O)(c2ccccc2)OC1=O` [EXAMPLE 130, (S)-6-(2-hydroxy-2-methylpropyl)-6-phenyl-3-((S)-1-(4-(pyrazin-2-yl)phenyl)ethyl)-1,3-oxazinan-2-one], the IC50 against CYP2C9 [3] is 9.7 µM; on 11β-HSD1 [4], 0.0216 µM; against 11β-HSD1 [5] (setting [7]), 2.5 nM; on 11β-HSD1 [5] (setting [8]), below 100 nM; against CYP2C19, 3 µM; against CYP2C9 [1], above 50 µM. Moreover, at CYP3A4, it took 11.8 µM to reach half-maximal inhibition (IC50). On 11β-HSD1 [5], the inhibition at 0.1 µM is 97.9%. Also, the “Biological Test Example 5 (%)” value in data set [2] is 1.9%.
As to `C[C@@H](c1ccc(-c2ccccn2)cc1)N1CC[C@](CCCNS(C)(=O)=O)(c2ccc(F)cc2)OC1=O` [EXAMPLE 61, N-(3-((R)-6-(4-fluorophenyl)-2-oxo-3-((S)-1-(4-(pyridin-2-yl)phenyl)ethyl)-1,3-oxazinan-6-yl)propyl)methanesulfonamide], the IC50 is 9.9 µM on CYP2C9 [3]; 0.0136 µM on 11β-HSD1 [4]; 0.7 nM on 11β-HSD1 [5] (setting [7]); below 100 nM at 11β-HSD1 [5] (setting [8]); 40 µM on CYP2C19; 23 µM against CYP2C9 [1]. For the same molecule, the midpoint of inhibition at CYP3A4, the IC50, lay at 29.2 µM. Besides, the Shift on 11β-HSD1 [4] is on record as 18.2. For the same molecule, the inhibition at 0.1 µM at 11β-HSD1 [5] came out at 96.2%.
`Cc1cc(-c2ccc([C@H](C)N3CC[C@](CC(C)(C)O)(c4ccc(F)cc4)OC3=O)cc2)ccn1` [EXAMPLE 76, (S)-6-(4-fluorophenyl)-6-(2-hydroxy-2-methylpropyl)-3-((S)-1-(4-(2-methylpyridin-4-yl)phenyl)ethyl)-1,3-oxazinan-2-one]: the 50% inhibitory concentration (IC50) is 7.9 µM on CYP2C9 [3]; 0.0069 µM on 11β-HSD1 [4]; 0.8 nM at 11β-HSD1 [5] (setting [7]); below 100 nM on 11β-HSD1 [5] (setting [8]); 8.5 µM at CYP2C19; 2.9 µM at CYP2C9 [1]. This molecule yielded a half-inhibitory concentration (IC50) against CYP3A4 of 5 µM. The Shift at 11β-HSD1 [4] worked out at 8.8. The inhibition at 0.1 µM at 11β-HSD1 [5] was found to be 98.7%.
For the molecule `COc1ccc(-c2ccc([C@H](C)N3CC[C@](CCC(N)=O)(c4ccccc4)OC3=O)cc2)cn1` [EXAMPLE 52, 3-((R)-3-((S)-1-(4-(6-methoxypyridin-3-yl)phenyl)ethyl)-2-oxo-6-phenyl-1,3-oxazinan-6-yl)propanamide], the IC50 on 11β-HSD1 [4] is 0.0105 µM; against 11β-HSD1 [5] (setting [7]) it was 1.1 nM; on 11β-HSD1 [5] (setting [8]) it was below 100 nM; against CYP3A4, above 50 µM. On 11β-HSD1 [5], the inhibition at 0.1 µM is 94.5%. Besides, the “Biological Test Example 5 (%)” value in data set [2] was found to be 1.8%.
Turning to `Cc1cc(-c2ccc([C@H](C)N3CC[C@](CC(C)(C)O)(c4ccccc4)OC3=O)cc2)ccn1` [EXAMPLE 97, (S)-6-(2-hydroxy-2-methylpropyl)-3-((S)-1-(4-(2-methylpyridin-4-yl)phenyl)ethyl)-6-phenyl-1,3-oxazinan-2-one], the IC50 was 9.7 µM against CYP2C9 [3]; 0.0108 µM at 11β-HSD1 [4]; 1 nM against 11β-HSD1 [5] (setting [7]); below 100 nM at 11β-HSD1 [5] (setting [8]); 19.5 µM on CYP2C19; 11.2 µM on CYP2C9 [1]. The molecule further showed an IC50 against CYP3A4 of 8.9 µM. The Shift on 11β-HSD1 [4] is 11.1. Besides, the inhibition at 0.1 µM at 11β-HSD1 [5] is 98.8%.
